Patent EP0319906A2, “Novel quinoline derivatives, processes for preparation thereof and antibacterial agent containing them” (Dainippon Pharmaceutical Co., Ltd., priority 1987, dated 1989)
Converted amounts (≈) assume the structure as drawn.

Legend:
S. aureus Terajima = assay: In vitro antibacterial activity, twofold agar-dilution MIC; format: cell-based; conditions: Staphylococcus aureus; S. aureus Terajima; Mueller-Hinton agar, 20-hour incubation at 37 °C; calculated for free base; read-out: minimum inhibitory concentrations (MIC)
Experimental: (§1) The figures in the table show minimum inhibitory concentrations (MIC) (µg/ml), calculated for free base. […] One loopful of an overnight culture of test organisms in Mueller-Hinton broth was inoculated onto 10 ml drug- containing agar layers in petri dishes. Bacterial inocula contained approximately 10⁶ colonyl-forming units. […] The MIC was defined as the lowest drug concentration which prevented visible bacterial growth.

S. marcescens S-9 = assay: as above; format: cell-based; conditions: Serratia marcescens, S9; S. marcescens S-9; Mueller-Hinton agar, 20-hour incubation at 37 °C; calculated for free base; read-out: minimum inhibitory concentrations (MIC)
Experimental: as §1

E. coli P-5101 = assay: as above; format: cell-based; conditions: Escherichia coli, P5101; E. coli P-5101; Mueller-Hinton agar, 20-hour incubation at 37 °C; calculated for free base; read-out: minimum inhibitory concentrations (MIC)
Experimental: as §1

S. aureus 209 JC-1 = assay: as above; format: cell-based; conditions: Staphylococcus aureus, 209JC1; S. aureus 209 JC-1; Mueller-Hinton agar, 20-hour incubation at 37 °C; calculated for free base; read-out: minimum inhibitory concentrations (MIC)
Experimental: as §1

E. coli NIHJ JC-2 = assay: as above; format: cell-based; conditions: Escherichia coli, NIHJJC2; E. coli NIHJ JC-2; Mueller-Hinton agar, 20-hour incubation at 37 °C; calculated for free base; read-out: minimum inhibitory concentrations (MIC)
Experimental: as §1

S. pyogenes A65 = assay: as above; format: cell-based; conditions: Streptococcus pyogenes; S. pyogenes A65; Mueller-Hinton agar, 20-hour incubation at 37 °C; calculated for free base; read-out: minimum inhibitory concentrations (MIC)
Experimental: as §1

S. epidermidis No. 8 = assay: as above; format: cell-based; conditions: Staphylococcus epidermidis; S. epidermidis No. 8; Mueller-Hinton agar, 20-hour incubation at 37 °C; calculated for free base; read-out: minimum inhibitory concentrations (MIC)
Experimental: as §1

P. aeruginosa 12 = assay: as above; format: cell-based; conditions: Pseudomonas aeruginosa; P. aeruginosa 12; Mueller-Hinton agar, 20-hour incubation at 37 °C; calculated for free base; read-out: minimum inhibitory concentrations (MIC)
Experimental: as §1

S. aureus No. 80 = assay: as above; format: cell-based; conditions: Staphylococcus aureus; S. aureus No. 80; Mueller-Hinton agar, 20-hour incubation at 37 °C; calculated for free base; read-out: minimum inhibitory concentrations (MIC)
Experimental: as §1

M. orale CH-19299 = assay: Antimycoplasma activity, twofold agar dilution MIC; format: cell-based; conditions: po, 48 h; M. orale CH-19299; Chanock agar, 37 °C for 2 days, anaerobically; calculated for free base; read-out: minimum inhibitory concentrations (MIC)
Experimental: (§2) The figures in the table show minimum inhibitory concentrations (MIC), (μg/ml), calculated for free base. Minimum inhibitory concentrations (MIC) were determined by the twofold agar dilution method. The media used were Chanock broth and agar [PPLD broth and agar (Difco) supplemented with 20 % horse serum and 10 % fresh yeast extract]. A 2-3 day broth culture of organisms was diluted with Chanock broth to a cell density of about 10^6 cells/ml. One loopful (about […]) of the organism dilution was spotted onto 10-ml drug containing Chanock agar in petri dishes using a multiple inoculator ([…] International). […] Incubation was performed anaerobically using the […] anaerobic system (BBL) for M. buccale, M. fermentans, M. hominis, M. orale and M. salivarium, and aerobically for other Mycoplasma spp. The MIC was defined as the lowest compound concentration at which no growth of organism was detected.

M. arginini G-230 = assay: Antimycoplasma activity, twofold agar dilution MIC; format: cell-based; conditions: 48 h; M. arginini G-230; Chanock agar, 37 °C for 2 days, aerobically; calculated for free base; read-out: minimum inhibitory concentrations (MIC)
Experimental: as §2

M. salivarium PG-20 = assay: Antimycoplasma activity, twofold agar dilution MIC; format: cell-based; conditions: 48 h; M. salivarium PG-20; Chanock agar, 37 °C for 2 days, anaerobically; calculated for free base; read-out: minimum inhibitory concentrations (MIC)
Experimental: as §2

in vivo = conditions: mouse, po, orally given to male mice (ddY), dead mice counted after 7 days, Behrens-Kaerber method, read-out: LD₅₀
Experimental: A suspension containing each of compounds of this invention in various concentrations was orally given to male mice (ddY) at a dose of 0.1 ml per 10 g of body weight. The number of dead mice was counted after 7 days, and the value of median lethal dose (LD₅₀, mg/kg) was calculated in accordance with the Behrens-Kaerber method.

C. Trachomatics G/ur 931 = assay: Antichlamydia activity, MIC in McCoy cells (inclusion bodies); format: cell-based; conditions: C. Trachomatics G/ur 931; McCoy cells, 36 °C for 40-48 hours; calculated for free base; read-out: minimum inhibitory concentrations (MIC)
Experimental: (§3) The figures in the table show minimum inhibitory concentrations (MIC), (μg/ml), calculated for free base. Minimum inhibitory concentrations (MIC) were determined as follows. […] The cells were trypsinized and suspended in the same culture medium at a cell concentration of 1-2 x 10^5 cells/ml. One ml of the cell suspension was pipetted into flat-bottomed plastic tubes (14 mm in diameter) containing a cover slip (12 mm in diameter). The tubes were incubated in 5 % CO2-air at 36 °C for 20 hours. One-half ml of a chlamydial suspension (ca. 1-4 x 103 inclusion body forming units) was added into each tube, which was then centrifuged at 1500 x g for 60 minutes. The tubes were incubated for 1 hour at 36 °C. […] After further incubation at 36 °C for 40-48 hours, the cells on the cover glasses were stained with the Giemsa's solution. […] The MIC was defined as the lowest drug concentration where there were no inclusion bodies in all the cells on the cover slip.

[1] = tested on: C. Trachomatics G/ur 1242; assay: as above; format: cell-based; conditions: C. Trachomatics G/ur 1242; McCoy cells, 36 °C for 40-48 hours; calculated for free base; read-out: minimum inhibitory concentrations (MIC)
Experimental: as §3

[2] = tested on: C. Trachomatics G/ur 1448; assay: as above; format: cell-based; conditions: C. Trachomatics G/ur 1448; McCoy cells, 36 °C for 40-48 hours; calculated for free base; read-out: minimum inhibitory concentrations (MIC)
Experimental: as §3

[3] = tested on: C. Trachomatics G/ur 1317; assay: as above; format: cell-based; conditions: C. Trachomatics G/ur 1317; McCoy cells, 36 °C for 40-48 hours; calculated for free base; read-out: minimum inhibitory concentrations (MIC)
Experimental: as §3

Cc1c(F)c(N2C[C@@H](C)N[C@@H](C)C2)c(F)c2c1c(=O)c(C(=O)O)cn2C1CC1 [Compound 1, 1-cyclopropyl-6,8-difluoro-5-methyl-7-(cis-3,5-demethyl-1-piperazinyl)-1,4-dihydro-4-oxoquinoline-3-carboxylic acid]
MIC (S. aureus Terajima): 0.05 µg/mL (≈ 0.128 µM) | MIC (S. marcescens S-9): 0.39 µg/mL (≈ 0.996 µM) | MIC (E. coli P-5101): 0.025 µg/mL (≈ 0.0639 µM) | MIC (S. aureus 209 JC-1): 0.05 µg/mL (≈ 0.128 µM) | MIC (E. coli NIHJ JC-2): 0.025 µg/mL (≈ 0.0639 µM) | MIC (S. pyogenes A65): 0.2 µg/mL (≈ 0.511 µM) | MIC (S. epidermidis No. 8): 0.025 µg/mL (≈ 0.0639 µM) | MIC (P. aeruginosa 12): 0.2 µg/mL (≈ 0.511 µM) | MIC (S. aureus No. 80): 0.0125 µg/mL (≈ 0.0319 µM) | MIC (M. orale CH-19299): 0.2 µg/mL (≈ 0.511 µM) | MIC (M. arginini G-230): 0.025 µg/mL (≈ 0.0639 µM) | MIC (M. salivarium PG-20): 0.1 µg/mL (≈ 0.255 µM) | LD50 at 168 h (in vivo): > 2000 mg/kg | MIC (C. Trachomatics G/ur 931): 0.013 µg/mL (≈ 0.0332 µM) | MIC [1]: 0.025 µg/mL (≈ 0.0639 µM) | MIC [2]: 0.025 µg/mL (≈ 0.0639 µM) | MIC [3]: 0.013 µg/mL (≈ 0.0332 µM)
